Assay results published in publication PMC5421785, “Citrullination only infrequently impacts peptide binding to HLA class II MHC” (PLoS ONE, 2017).
Like-named read-outs stand apart in the source and are kept apart here. Square brackets hold non-standard residues; d marks the D form. Ends that are not written are not given here. Peptide text beside a SMILES is read from it. Cit = NC(=O)NCCC[C@H](N)C(=O)O

Key:
[1] = biological target: T1, HLA-DRB1*04:01 (Homo sapiens, UniProt P01903+P01911, A100K/A169T/F76Y/I96L/K127E/L162R/M171V/N62H/P40V/Q125Y/R42H/S133A/S149N/S66Y/V115G/V209L/W38E); test: HLA class II peptide binding, inhibition of radiolabeled peptide binding to purified MHC
T1 construct: EBV transformed homozygous cell lines were used as sources of MHC molecules; endogenous in cells; host or cells: EBV transformed homozygous cell lines

[2] = biological target: T2, HLA-DRB1*01:01 (Homo sapiens, UniProt P01903+P01911, A100R/D57E/F55L/F60I/F76Y/I96L/L162R/M171V/P40L/Q125E/R42F/V115G/Y59C); test: as above
T2 construct: EBV transformed homozygous cell lines were used as sources of MHC molecules; endogenous in cells; host or cells: EBV transformed homozygous cell lines

[3] = citrullinated 15-mer peptide (X = citrulline), purified HLA-DRB1*04:01, read-out: DRB1*04:01 binding capacity, Cit peptide (IC50 nM)
[4] = citrullinated 15-mer peptide (X = citrulline), purified HLA-DRB1*01:01, read-out: DRB1*01:01 binding capacity, Cit peptide (IC50 nM)
[5] = read-out: DRB1*04:01 binding capacity, WT peptide (IC50 nM)
[6] = read-out: DRB1*01:01 binding capacity, WT peptide (IC50 nM)
[7] = wild-type (unmodified Arg) 15-mer peptide, purified HLA-DRB1*04:01, read-out: DRB1*04:01 binding capacity, WT peptide (IC50 nM)
[8] = wild-type (unmodified Arg) 15-mer peptide, purified HLA-DRB1*01:01, read-out: DRB1*01:01 binding capacity, WT peptide (IC50 nM)
[9] = citrullinated peptide as listed (X at Cit position), read-out: DRB1*04:01 binding capacity Cit peptide (IC50 nM)
[10] = citrullinated peptide as listed (X at Cit position), read-out: DRB1*01:01 binding capacity Cit peptide (IC50 nM)
[11] = citrullinated 15-mer (X), purified MHC, inhibition of radiolabeled peptide binding, dash = IC50 >40,000 nM, read-out: DRB1*04:01 binding capacity, Cit peptide (IC50 nM)
[12] = citrullinated 15-mer (X), purified MHC, inhibition of radiolabeled peptide binding, dash = IC50 >40,000 nM, read-out: DRB1*01:01 binding capacity, Cit peptide (IC50 nM)

CSCC[C@H](NC(=O)[C@@H](NC(=O)CNC(=O)[C@@H]1CCCN1C(=O)[C@H](CCC(N)=O)NC(=O)CNC(=O)[C@H](CCCNC(N)=O)NC(=O)[C@H](C)NC(=O)CNC(=O)[C@H](CCC(N)=O)NC(=O)[C@@H]1CCCN1C(=O)CN)C(C)C)C(=O)NCC(=O)N[C@@H](Cc1ccccc1)C(=O)N1CCC[C@H]1C(=O)O [GPQGAXGQPGVMGFP] (H-GPQGA[Cit]GQPGVMGFP-OH)
IC50 [1, 3]: 14900 nM | IC50 [2, 4]: 64 nM

SKPDLTAALRDVRQQ [Vimentin 261 WT]
IC50 [1, 5]: > 40000 nM | IC50 [2, 6]: 5190 nM

CC[C@H](C)[C@H](N)C(=O)N[C@@H](CO)C(=O)N[C@@H](CC(C)C)C(=O)N1CCC[C@H]1C(=O)N[C@@H](CC(C)C)C(=O)N1CCC[C@H]1C(=O)N[C@@H](CC(N)=O)C(=O)N[C@@H](Cc1ccccc1)C(=O)N[C@@H](CO)C(=O)N[C@@H](CO)C(=O)N[C@@H](CC(C)C)C(=O)N[C@@H](CC(N)=O)C(=O)N[C@@H](CC(C)C)C(=O)N[C@@H](CCCNC(=N)N)C(=O)N[C@@H](CCC(=O)O)C(=O)O [Vimentin 411 WT]
IC50 [1, 7]: 7000 nM | IC50 [2, 8]: 326 nM

ELRRQVDQLTNDKAR [Vimentin 156 WT]
IC50 [1, 5]: 5240 nM | IC50 [2, 6]: 568 nM

CC[C@H](C)[C@H](NC(=O)[C@H](CO)NC(=O)[C@H](CCC(=O)O)NC(=O)[C@@H](NC(=O)[C@H](CCC(N)=O)NC(=O)[C@H](CC(N)=O)NC(=O)[C@H](CC(N)=O)NC(=O)[C@H](CC(C)C)NC(=O)[C@H](CO)NC(=O)[C@H](CCCCN)NC(=O)[C@H](CC(C)C)NC(=O)[C@@H](NC(=O)[C@H](C)NC(=O)[C@@H](N)CC(=O)O)[C@@H](C)O)[C@@H](C)CC)C(=O)N[C@@H](CCCNC(N)=O)C(=O)O [DATLKSLNNQIESIX] (H-DATLKSLNNQIESI[Cit]-OH)
IC50 [1, 9]: 1390 nM | IC50 [2, 10]: 9.4 nM

NYIDKVRFLEQQNKI [Vimentin 116 WT]
IC50 [1, 5]: 824 nM | IC50 [2, 6]: 72 nM

PPGPQGPAGEQGPRG [Collagen 121 WT]
IC50 [1, 7]: > 40000 nM | IC50 [2, 8]: 22400 nM

CSCC[C@H](NC(=O)[C@H](CCC(=O)O)NC(=O)[C@H](CCC(=O)O)NC(=O)[C@H](CCC(=O)O)NC(=O)[C@H](Cc1ccc(O)cc1)NC(=O)[C@H](CC(C)C)NC(=O)[C@H](CC(=O)O)NC(=O)CNC(=O)[C@@H](N)CC(C)C)C(=O)N[C@@H](CCCNC(=N)N)C(=O)N[C@@H](CCC(=O)O)C(=O)N[C@@H](CC(C)C)C(=O)N[C@@H](CCCNC(=N)N)C(=O)N[C@@H](CCCNC(N)=O)C(=O)N[C@@H](CCC(N)=O)C(=O)O [LGDLYEEEMRELRXQ]
IC50 [1, 11]: > 40000 nM | IC50 [2, 12]: 14800 nM

C[C@H](NC(=O)[C@@H](NC(=O)CNC(=O)[C@@H]1CCCN1C(=O)CNC(=O)CN)[C@@H](C)O)C(=O)N[C@@H](CO)C(=O)N[C@@H](CCCNC(=N)N)C(=O)N1CCC[C@H]1C(=O)N[C@@H](CO)C(=O)N[C@@H](CO)C(=O)N[C@@H](CO)C(=O)N[C@@H](CCCNC(N)=O)C(=O)N[C@@H](CO)C(=O)N[C@@H](Cc1ccc(O)cc1)C(=O)O [GGPGTASRPSSSXSY] (H-GGPGTASRPSSS[Cit]SY-OH)
IC50 [1, 11]: > 40000 nM | IC50 [2, 12]: 13800 nM

C[C@H](NC(=O)CNC(=O)[C@H](C)NC(=O)[C@@H]1CCCN1C(=O)CNC(=O)[C@@H](NC(=O)[C@H](CCCNC(N)=O)NC(=O)CNC(=O)[C@H](CCCNC(=N)N)NC(=O)[C@@H](N)CCC(=O)O)[C@@H](C)O)C(=O)N[C@@H](C)C(=O)NCC(=O)N[C@@H](C)C(=O)N[C@@H](CCCNC(=N)N)C(=O)NCC(=O)O [ERGXTGPAGAAGARG] (H-ERG[Cit]TGPAGAAGARG-OH)
IC50 [1, 3]: > 40000 nM | IC50 [2, 4]: 3910 nM

CSCC[C@H](NC(=O)[C@H](CCC(=O)O)NC(=O)[C@H](CCC(=O)O)NC(=O)[C@H](CCCCN)NC(=O)[C@H](CCSC)NC(=O)[C@@H](N)CC(N)=O)C(=O)N[C@@H](C)C(=O)N[C@@H](CCCNC(N)=O)C(=O)N[C@@H](Cc1c[nH]cn1)C(=O)N[C@@H](CC(C)C)C(=O)N[C@@H](CCCNC(=N)N)C(=O)N[C@@H](CCC(=O)O)C(=O)N[C@@H](Cc1ccc(O)cc1)C(=O)N[C@@H](CCC(N)=O)C(=O)N[C@@H](CC(=O)O)C(=O)O [NMKEEMAXHLREYQD]
IC50 [1, 3]: > 40000 nM | IC50 [2, 4]: 5190 nM

CC[C@H](C)[C@H](NC(=O)CNC(=O)[C@H](CCCNC(=N)N)NC(=O)[C@H](CCC(N)=O)NC(=O)CNC(=O)[C@H](C)NC(=O)[C@@H](N)CC(C)C)C(=O)N[C@H](C(=O)NCC(=O)N[C@@H](CC(C)C)C(=O)N1CCC[C@H]1C(=O)NCC(=O)N[C@@H](CCC(N)=O)C(=O)N[C@@H](CCCNC(N)=O)C(=O)NCC(=O)O)C(C)C [LAGQRGIVGLPGQXG] (H-LAGQRGIVGLPGQ[Cit]G-OH)
IC50 [1, 3]: 5040 nM | IC50 [2, 4]: 1.3 nM

MARHLREYQDLLNVK [Vimentin 376 WT]
IC50 [1, 7]: 1780 nM | IC50 [2, 8]: 270 nM

CC(C)C[C@H](NC(=O)CNC(=O)[C@H](CCCNC(N)=O)NC(=O)[C@@H]1CCCN1C(=O)CNC(=O)[C@@H](N)CCC(N)=O)C(=O)N1CCC[C@H]1C(=O)NCC(=O)N[C@H](C(=O)N1CCC[C@H]1C(=O)NCC(=O)N[C@H](C(=O)N[C@@H](CC(=O)O)C(=O)NCC(=O)N1CCC[C@H]1C(=O)O)[C@@H](C)O)[C@@H](C)O [QGPXGLPGTPGTDGP] (H-QGP[Cit]GLPGTPGTDGP-OH)
IC50 [1, 3]: > 40000 nM | IC50 [2, 4]: 21000 nM

MIRLGAPQTLVLLTL [Collagen 1 WT]
IC50 [1, 7]: 7130 nM | IC50 [2, 8]: 315 nM

GAQGLQGPRGLPGTP [Collagen 711 WT]
IC50 [1, 7]: > 40000 nM | IC50 [2, 8]: 352 nM

CC(C)C[C@H](NC(=O)[C@H](C)NC(=O)[C@@H](NC(=O)[C@H](Cc1ccc(O)cc1)NC(=O)[C@@H](NC(=O)[C@H](Cc1ccccc1)NC(=O)[C@H](CCCNC(N)=O)NC(=O)[C@H](CO)NC(=O)[C@@H](N)CC(N)=O)[C@@H](C)O)[C@@H](C)O)C(=O)N[C@@H](CCCCN)C(=O)N[C@@H](CC(=O)O)C(=O)NCC(=O)N[C@@H](CS)C(=O)N[C@H](C(=O)N[C@@H](CCCCN)C(=O)O)[C@@H](C)O [NSXFTYTALKDGCTK] (H-NS[Cit]FTYTALKDGCTK-OH)
IC50 [1, 9]: 12400 nM | IC50 ([1]; value of the wild-type (non-citrullinated) counterpart of the listed peptide, read-out: DRB1*04:01 binding capacity WT peptide (IC50 nM)): 4170 nM | IC50 [2, 10]: 44 nM | IC50 ([2]; value of the wild-type (non-citrullinated) counterpart of the listed peptide, read-out: DRB1*01:01 binding capacity WT peptide (IC50 nM)): 15 nM

PGLQGMPGERGAAGI [Collagen 746 WT]
IC50 [1, 7]: 1050 nM | IC50 [2, 8]: 14 nM

VLLTLLVAAVLRCQG [Collagen 11 WT]
IC50 [1, 7]: > 40000 nM | IC50 [2, 8]: 148 nM

CSCC[C@H](NC(=O)[C@H](CCC(=O)O)NC(=O)[C@H](CCCNC(=N)N)NC(=O)[C@H](CCSC)NC(=O)[C@H](CCC(N)=O)NC(=O)[C@H](CCCNC(N)=O)NC(=O)[C@@H](N)CCC(=O)O)C(=O)N[C@@H](CCC(=O)O)C(=O)N[C@@H](CCC(=O)O)C(=O)N[C@@H](CC(N)=O)C(=O)N[C@@H](Cc1ccccc1)C(=O)N[C@@H](C)C(=O)N[C@H](C(=O)N[C@@H](CCC(=O)O)C(=O)N[C@@H](C)C(=O)O)C(C)C [EXQMREMEENFAVEA] (H-E[Cit]QMREMEENFAVEA-OH)
IC50 [1, 3]: 1160 nM | IC50 [2, 4]: 5960 nM

CC(C)C[C@H](NC(=O)[C@H](CC(C)C)NC(=O)[C@H](CCCNC(=N)N)NC(=O)[C@@H](NC(=O)CNC(=O)[C@@H]1CCCN1C(=O)[C@@H](NC(=O)[C@H](CO)NC(=O)[C@H](CO)NC(=O)[C@H](CCCNC(=N)N)NC(=O)[C@H](CC(C)C)NC(=O)[C@H](CCCNC(N)=O)NC(=O)[C@@H](NC(=O)[C@H](C)NC(=O)[C@@H](N)CO)C(C)C)C(C)C)C(C)C)C(=O)O [SAVXLRSSVPGVRLL] (H-SAV[Cit]LRSSVPGVRLL-OH)
IC50 [1, 11]: 1050 nM | IC50 [2, 12]: 19 nM

NDKARVEVERDNLAE [Vimentin 166 WT]
IC50 [1, 5]: 884 nM | IC50 [2, 6]: 524 nM

CSCC[C@H](NC(=O)[C@H](CCC(=O)O)NC(=O)[C@H](CCC(=O)O)NC(=O)[C@H](CCC(=O)O)NC(=O)[C@H](Cc1ccc(O)cc1)NC(=O)[C@H](CC(C)C)NC(=O)[C@H](CC(=O)O)NC(=O)CNC(=O)[C@@H](N)CC(C)C)C(=O)N[C@@H](CCCNC(=N)N)C(=O)N[C@@H](CCC(=O)O)C(=O)N[C@@H](CC(C)C)C(=O)N[C@@H](CCCNC(=N)N)C(=O)N[C@@H](CCCNC(=N)N)C(=O)N[C@@H](CCC(N)=O)C(=O)O [Vimentin 146 WT]
IC50 [1, 5]: 38500 nM | IC50 [2, 6]: 9380 nM
